In brackets after ≈: the same amount, converted by molar mass.
Experiments:
[1] = cited from earlier work
Dissolution study = format: physicochemical
Source text: “FeSSIF” means fed state simulated intestinal fluid prepared by a recipe known in the art. This media is used to simulate gastrointestinal conditions. FeSSIF is the dissolution media that the powders produced in the following examples are dispersed into to quantitate the amount of drug dissolved as a function of time.
(§1) Ethyl acetate/water or dichloromethane/water mixtures were used to produce o/w emulsions for SFL micronization, and a tetrahydrofuran/water mixture was used to formulate the feed solutions. Micronized SFL powders were characterized by x-ray diffraction, surface area, scanning and transmission electron microscopy, contact angle and dissolution (SLS 0.75%/Tris 1.21% media).

[2] = Particle size distribution of dry powders (time-of-flight); format: physicochemical
Method: (§2) An aliquot of 0.1 g bovine insulin was dissolved in 20 ml HCl (pH=2), the solution was then titrated by 0.1 N NaOH to pH 7.4. The feed solution was then atomized using an ISCO pump by spray freezing into liquid nitrogen. The nozzle used was polyetheretherketone tubing with a diameter of 63.5 μm. The flow rate was 14 ml/min at 4000 psi. The frozen particles were collected and dried in a tray lyophilizer.
The span index is used to described the polydispersity in a given particle size distribution and is defined as (D90-D10)/D50, where D10, D50, and D90 are the respective particle size at 10, 50, 90 percent cumulative percent undersize.

[3] = Insulin aggregation: covalent insulin dimer (size exclusion HPLC); format: physicochemical; settings: for percentage of covalent insulin dimer in the samples: stored at −4° C.
Method: as §2, with “lyophilizer. The resulting particles were highly porous. […] The SFL process decreased the level of covalent insulin dimer (Table 3). The mean particle size diameter as determined by time-of-flight measurement was 5.06 microns. SEM photographs reveal that the particle is an aggregate composed of small domains of insulin.” for “lyophilizer.”
(§3) The SFL insulin powder was prepared according to the procedure outlined in Example 1 with same formulation. The SFL insulin powder was stored at −4° C. The samples were taken out at 6, 12 and 24 weeks.
(§4) The products were characterized by different techniques. […] The median aerodynamic particle size was 5.06 μm.

[4] = Chemical stability of insulin: A-21 desamido insulin level (RP-HPLC); format: physicochemical; settings: for percentage of A-21 desamido in the samples: stored at −4° C.
Method: as §2, with “lyophilizer. The resulting particles were highly porous. […] The SFL process decreased the level of covalent insulin dimer (Table 3). The mean particle size diameter as determined by time-of-flight measurement was 5.06 microns. SEM photographs reveal that the particle is an aggregate composed of small domains of insulin.” for “lyophilizer.”
as §3, §4

[5] = Contact angle against dissolution media (SLS/Tris); format: physicochemical
Source text: as §1

[6] = BET specific surface area; format: physicochemical
Source text: The microparticles obtained were discrete and compact with almost spherical shape. […] The protein/polymer ratio has a strong effect on the entrapment efficiency and loading degree of the incorporated protein. The entrapment efficiency was high for all investigated biodegradable polymers. High polymer concentration yielded high entrapment efficiency for all observed biodegradable polymers and is illustrated at FIG. 6. Scanning Electron Micrographs (SEM) were taken of microparticles prepared by the following conditions: […] An adsorption isotherm derived by S. Brunaure, P. H. Emmett, and E.

Compound: NC(=O)N1c2ccccc2C=Cc2ccccc21 [CBZ, carbamazepine]
- aqueous solubility [1]: 61 µg/mL (≈ 258 µM)
- CBZ dissolved in water (Dissolution study; water, within 10 minutes): about 4%
- Span Index ([2]; (D90-D10)/D50): 2.94
- D10 (μm) ([2]; time-of-flight, Table 10): 15.56 μm
- D50 (μm) ([2]; time-of-flight, Table 10): 39.70 μm
- D90 (μm) ([2]; time-of-flight, Table 10): 132.33 μm
- mean particle diameter ([2]; time-of-flight, text Example 8): 39.70 μm

Compound: bovine insulin [Bulk insulin]
- Covalent Insulin Dimer (percent) ([3]; Table 3): 0.25%
- percentage of covalent insulin dimer in the samples ([3]; 12 weeks): 1.18 percentage
- percentage of covalent insulin dimer in the samples ([3]; 24 weeks): 1.15 percentage
- percentage of covalent insulin dimer in the samples ([3]; Initial): 0.5 percentage
- A-21 desamido insulin (percent) ([4]; Table 3): 3.03%
- percentage of A-21 desamido in the samples ([4]; 12 weeks): 2.61 percentage
- percentage of A-21 desamido in the samples ([4]; 24 weeks): 2.72 percentage
- percentage of A-21 desamido in the samples ([4]; Initial): 2.46 percentage
- Mean Particle Size (μm) ([2]; Table 3): 14.24 μm

Compound: C#C[C@]1(O)CC[C@H]2[C@@H]3CCC4=Cc5oncc5C[C@]4(C)[C@H]3CC[C@@]21C [Danazol]
- danazol dissolved (Dissolution study; FeSSIF media, 60 minutes): 21%
- danazol dissolved (Dissolution study; SLS 0.75%/Tris 1.21% media, 5 minutes): Approximately 53%
- danazol dissolved (Dissolution study; SLS 0.75%/Tris 1.21% media, 60 minutes): about 88%
- Average Contact Angle (S.D.) ([5]; listed as Bulk Danazol): 64.3 (1.1)^2 °
- Average Contact Angle (S.D.) ([5]; listed as bulk micronized danazol): 64.3 °
- M 10(μm) ([2]; dry powders, Table 14): 7.28 μm
- M 90(μm) ([2]; dry powders, Table 14): 51.78 μm
- M 50(μm) ([2]; dry powders, Table 14 and text Example 30): 23.10 μm
- BET specific surface area ([6]; Examples 4, 5, 8): 0.52 m2/g
- Specific Surface Area (m^2/g) ([6]; Table 14 and text Example 30): 0.52 m^2/g

Source: patent US20040022861A1, “Process for production of nanoparticles and microparticles by spray freezing into liquid” (priority 2001, published 2004)
